Results as given in patent US12285462B2, “pH-triggered membrane peptide-mediated epitope tethering at cell surfaces” (UNIVERSITY OF RHODE ISLAND BOARD OF TRUSTEES, priority 2019, dated 2025).
Primed or numbered codes have the meaning given here. Where no end group is shown, it is not given here. Side-chain parts run from the residue outwards. The star is where a group is joined. Dnp = O=[N+]([O-])c1ccc(*)c([N+](=O)[O-])c1; PEG12′ = not defined here

System: HeLa cells (tumor spheroids)
Experiment: Complement-mediated killing of tumor spheroids (anti-DNP antibody or human IgM, human serum with active complement, PI staining)
Assay type: cell-based
Conditions: 5 µM construct 1 hour PBS pH6.5, anti-DNP antibody or human IgM 1 hr pH7.4, human serum with active complement and PI, FIG. 8, imaged 2 hours after treatment
Method: The key for induction of immunological response is a proper positioning of epitope at the surface of tumor cells, which was verified on 3-D tumor cancer cell culture (tumor spheroids). Briefly, a 2% agarose solution was made by dissolving in pH 7.4 PBS. 150 μL of the solution was pipetted into each well of a 48-well flat bottom tissue culture plate. After the agarose gel sufficiently settled (˜1 h), 150 μL of DMEM supplemented with 10% FBS and ciprofloxacin-HCl was added to each well. The covered plate was left in a humidified atmosphere at 37° C. and 5% CO2 in cell culture incubator for 24 h. On the next day, the excess medium was removed from the agarose layer. HeLa cells (10,000 cells) in 200 μL of DMEM containing 2% matrigel were added into each well and incubated for 3-4 days to allow the formation of spheroids. Matrigel was dissolved on ice overnight and added in ice cold DMEM at a concentration of 2.5% (to obtain a final concentration of 2% once added to the wells). Then the mixture was heated to 37° C. before being combined with the cells. […] After treatment, the spheroids were washed several times in 1 mL of PBS. Next, spheroids were treated with anti-DNP antibody labeled with 647 nm fluorescent dye at pH 7.4 followed by washing. Spheroids were also stained with DAPI to mark cell nucleus. […]

With “DNP-PEG12-pHLIP®: DNP-PEG12-NHS conjugated with single Lys residue at N-terminal of pHLIP® peptide Ac-AKDDQNPWRAYLDLLFPTDTLLLDLLWA (SEQ ID NO: 510) (Ac-AK([PEG12′-Dnp])DDQNPWRAYLDLLFPTDTLLLDLLWA)” the “PI staining (red color) of dead or dying cells after complement-mediated attack” value was “plasma membrane of cells was comrpomized by complement-mediated attack and that the cells were dying”.
